According to article PMC6995600, “Effects of Synergistic Inhibition on α-glucosidase by Phytoalexins in Soybeans” (Biomolecules, 2019):
Like-named read-outs stand apart in the source and are kept apart here.

Tests used:
α-glucosidase = test system: α-glucosidase; parameters: method as in PMID 24083955; details: 2 μM; cited from earlier work
[1] = biological target: T1, α-Glucosidase (from baker’s yeast) (Saccharomyces cerevisiae, UniProt P53341); test: Enzyme kinetics for α-glucosidase (Michaelis–Menten, Lineweaver–Burk, Dixon plot); type: biochemical; details: for Mode of Inhibition: Lineweaver–Burk plots
T1 construct: purchased Sigma-Aldrich #63231-63-0
Procedure: The enzyme reaction was performed according to the above reaction conditions with polyphenols at various concentrations (1–30 μM). pNPG (1 mM) was added with polyphenols in 96-well plates, and α-glucosidase (1 U/mL) was added to initiate the enzyme reaction. The absorbances for each concentration of pNPG were then obtained by spectrophotometry (Victor3, PerkinElmer, Waltham, MA, USA). The inhibition modes of the polyphenols were determined using Michaelis–Menten and Lineweaver–Burk equations [23, 24]. The inhibition constant Ki is an indication of the potency of an inhibitor and equals the concentration required to produce half-maximal inhibition and can be determined by a Dixon plot. […] The αKi value is the inhibitor constant when the inhibitor (I) occupies the enzyme–substrate (ES) complex.
To define the mode of inhibition of the polyphenols, enzyme kinetics were performed with designated concentrations of pNPG. The maximum velocity (Vmax) for α-glucosidase was calculated from the nonlinear regression curve with five different concentrations of substrate (Figure 2). To determine the inhibition modes, Lineweaver–Burk plots were constructed for each of the inhibition modes, and the most suitable mode was selected using SigmaPlot 10.0 software.
Meanwhile, the inhibitor constant Ki indicates the potency of an inhibitor and is expressed as the concentration required to produce half-maximal inhibition and is determined by a Dixon plot. The initial slope v was determined for each concentration of each polyphenol. The reciprocal velocity (1/v) versus the […] (for 0.25, 0.5, 1, and 2 mM pNPG) was plotted. A single regression line for each concentration of the substrate was obtained, and Ki was calculated from the intersection of the four lines.

[2] = biological target: T1, α-Glucosidase (from baker’s yeast); test: biochemical
Procedure: The activity of α-glucosidase was measured as described previously, with slight modifications. In brief, sodium phosphate buffer (0.1 M) was adjusted to 0.1 N HCl to pH 7.0 with a pH meter (Thermo Fisher Scientific Inc., Waltham, MA, USA). Solutions of pNPG (10 mM) and α-glucosidase (1 U/mL) were solubilized in 0.1 M sodium phosphate buffer (pH 7.0). All reagents were prepared shortly before use and warmed to 37 °C in a water bath (Il-shin Biobase, Pocheon, Korea). […] The substrate, pNPG (N1377, Sigma), was added into each well to a final concentration of 1 mM in a total volume of 200 μL, and 100 μL of α-glucosidase (1 U/mL) per well was then added. […] The absorbance values were plotted against time, and the rate (velocity) of product generation (α-glucosidase activity) was calculated from the linear range of the graph.

[3] = biological target: T1, α-Glucosidase (from baker’s yeast); test: biochemical; remark: listed apart in the source
Procedure: Synergistic effects on α-glucosidase inhibition were measured using the same methods as above. […] We calculated the IC50 values of each polyphenol and the combinations, and we used the statistical differences of these values to assess synergistic effects.

[4] = pNPG 1 mM, pH 7.0, 37 °C, read-out: half-maximal inhibitory concentrations (IC50)
[5] = Substrate PNPG 0.125 mM, read-out: IC50
[6] = Substrate PNPG 0.25 mM, read-out: IC50
[7] = Substrate PNPG 0.5 mM, read-out: IC50
[8] = Substrate PNPG 1 mM, read-out: IC50

T1 sequence (P53341 whole entry): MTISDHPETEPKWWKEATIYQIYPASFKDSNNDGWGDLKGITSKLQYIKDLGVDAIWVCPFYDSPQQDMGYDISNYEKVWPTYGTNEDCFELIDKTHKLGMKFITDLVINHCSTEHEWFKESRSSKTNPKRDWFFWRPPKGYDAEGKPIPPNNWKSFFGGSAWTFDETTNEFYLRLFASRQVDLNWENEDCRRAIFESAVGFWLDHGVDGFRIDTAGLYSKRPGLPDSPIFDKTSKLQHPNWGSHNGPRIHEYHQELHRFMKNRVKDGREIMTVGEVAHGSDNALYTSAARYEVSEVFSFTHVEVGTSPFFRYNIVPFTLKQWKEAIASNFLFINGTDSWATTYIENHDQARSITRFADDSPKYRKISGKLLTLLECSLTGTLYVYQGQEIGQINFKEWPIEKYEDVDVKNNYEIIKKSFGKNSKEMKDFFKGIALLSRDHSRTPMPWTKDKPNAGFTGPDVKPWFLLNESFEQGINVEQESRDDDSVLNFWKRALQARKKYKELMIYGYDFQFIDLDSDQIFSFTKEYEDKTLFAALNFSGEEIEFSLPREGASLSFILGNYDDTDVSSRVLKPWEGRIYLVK

Row | Structure (SMILES) | Mode of Inhibition [1] | Ki [1] [µM] | IC50 [2, 4] [µM] | IC50 [3, 5] [µM] | IC50 [3, 6] [µM] | IC50 [3, 7] [µM] | IC50 [3, 8] [µM] | further results
1 | O=c1c2cc(O)ccc2oc2cc(O)cc(O)c12 [1,3,7-trihydroxyxanthone] |  |  |  |  |  |  |  | inhibition (α-glucosidase): approximately 15%
2 | C[C@H]1O[C@H](O[C@H]2[C@H](O)[C@@H](O)[C@@H](O[C@H]3[C@H](O)[C@@H](O)C(O)O[C@@H]3CO)O[C@@H]2CO)[C@H](O)[C@@H](O)[C@@H]1N[C@H]1C=C(CO)[C@@H](O)[C@H](O)[C@H]1O (some centres unmarked) [Acarbose, acarbose, reference compound] | Competitive |  |  |  |  |  |  | 
3 | O=c1c(-c2ccc(O)cc2)coc2cc(O)ccc12 [Daidzein, daidzein] | Uncompetitive |  |  |  |  |  |  | IC50 [2]: 20.2 ± 6.17 µM; IC50 ([3]; IC50, Substrate PNPG 0.125 mM): 59.2 ± 6.1 µM; IC50 ([3]; IC50, Substrate PNPG 0.25 mM): 27.6 ± 2.93 µM; IC50 ([3]; IC50, Substrate PNPG 0.5 mM): 23.2 ± 1.04 µM; IC50 ([3]; IC50, Substrate PNPG 1 mM): 20.5 ± 1.82 µM
4 | CC1(C)C=Cc2c(ccc3c2OC[C@@]2(O)c4ccc(O)cc4O[C@@H]32)O1 [Glyceollin, glyceollin] | Competitive | 19 ± 4.45 | 13.2 ± 2.31 | 16.6 ± 3.25 | 16.57 ± 0.15 | 19.1 ± 0.96 | 33.2 ± 3.97 | Mode of Inhibition ([1]; listed as glyceollin): competitive inhibition
5 | O=c1cc(-c2ccc(O)c(O)c2)oc2cc(O)cc(O)c12 [Luteolin, luteolin] | Mixed | 16.8 ± 9.6 | 11.9 ± 1.63 | 18.6 ± 1.2 | 14.82 ± 0.01 | 15.4 ± 1.99 | 19.5 ± 1.59 | 
